Measured values published in US20260193271A1, “PAN-KRAS INHIBITOR COMPOUND” (ADLAI NORTYE BIOPHARMA CO., LTD., priority 2022, published 2026).

Test system: AsPC-1 (G12D)
Experiment: In vitro cell proliferation inhibition test (CellTiter-Glo), AsPC-1
Type: cell-based
Details: AsPC-1 pancreas cell line, KRAS (p.G12D), 72 h co-incubation
Text: Test Example 1: In Vitro Cell Proliferation Inhibition Test
Due to the diversity of RAS mutations and in order to evaluate the activity of compounds in different RAS mutation cell lines, we selected KRAS^WT, KRAS^G12C, KRAS^G12D, KRAS^G12V and BRAF mutation cell lines (see the table below) for in vitro activity evaluation and screening of compounds.
Protocol: CellTiter-Glo® Cell Luminescent Viability Assay (Promega)
According to the doubling time of different cell lines, different numbers of cells (1000-5000 cells/well) were seeded in 96-well plates containing 180 μl of corresponding culture medium and cultured overnight in a cell culture incubator at 37° C. with 5% CO2. On the second day, the test compound was pre-diluted 3-fold with culture medium, with the highest concentration being 100 μM, for a total of 10 concentration gradients; then 20 μl of culture medium containing different concentrations of the compound was added to the cells in the 96-well plate to ensure that the final concentration of the compound was up to 10 μM, with 10 concentration gradients of 3-fold dilution. After the cells and compounds were co-incubated for 72 h, the 96-well plate was removed from the incubator and equilibrated at room temperature for 30 min. Then, 25 μl of CellTiter-Glo® Reagent was added to each well and mixed thoroughly. The mixture was incubated at room temperature for 10 min, and then 100 μl of the sample was transferred to a white 96-well plate (OptiPlate™-96, PerkinElmer). The […] signal value was read using a multi-function microplate reader (SpectraMax® i3x, Molecular devices). The signal values were then standardized, and the curve was fitted using a four-parameter regression equation to calculate the half maximal inhibitory concentration (IC50) of the compound on the cell line.

In order of falling IC50:
1. CCn1c(-c2cc(-c3ccc(CN4CCOCC4)cc3)cnc2C(C)OC)c2c3cc(ccc31)-c1csc(n1)CC(NC(=O)C1C(C)C1C)C(=O)N1CCCC(N1)C(=O)OCC(C)(C)C2 [Compound 1′, (1r,2R,3S)-N-((6^3S,4S,Z)-1^1-ethyl-1^2-(2-((S)-1-methoxyethyl)-5-(4-(morpholinomethyl)phenyl)pyridin-3-yl)-10,10-dimethyl-5,7-dioxo-6^1,6^2,6^3,6^4,6^5,6^6-hexahydro-1^1H-8-oxa-2(4,2)-thiazola-1(5,3)-indola-6(1,3)-pyridazinacycloundecaphane-4-yl)-2,3-dimethylcyclopropane-1-carboxamide]  4770 nM
2. CCn1c(-c2cc(-c3ccc4c(c3)CN(C)CC4)cnc2C(C)OC)c2c3cc(ccc31)-c1csc(n1)CC(NC(=O)C1CC1C)C(=O)N1CCCC(N1)C(=O)OCC(C)(C)C2 [Compound 10′, (1S,2S)-N-((6^3S,4S,Z)-1^1-ethyl-1^2-(2-((S)-1-methoxyethyl)-5-(2-methyl-1,2,3,4-tetrahydroisoquinolin-7-yl)pyridin-3-yl)-10,10-dimethyl-5,7-dioxo-6^1,6^2,6^3,6^4,6^5,6^6-hexahydro-1^1H-8-oxa-2(4,2)-thiazola-1(5,3)-indola-6(1,3)-pyridazinacycloundecaphane-4-yl)-2-methylcyclopropane-1-carboxamide]  1800 nM
3. CCn1c(-c2cc(-c3nc(C)no3)cnc2[C@H](C)OC)c2c3cc(ccc31)-c1csc(n1)C[C@H](NC(=O)[C@H]1C[C@@H]1C)C(=O)N1CCC[C@H](N1)C(=O)OCC(C)(C)C2 [Compound 21′, (1S,2S)-N-((6^3S,4S,Z)-1^1-ethyl-1^2-(2-((S)-1-methoxyethyl)-5-(3-methyl-1,2,4-oxadiazol-5-yl)pyridin-3-yl)-10,10-dimethyl-5,7-dioxo-6^1,6^2,6^3,6^4,6^5,6^6-hexahydro-1^1H-8-oxa-2(4,2)-thiazola-1(5,3)-indola-6(1,3)-pyridazinacycloundecaphane-4-yl)-2-methylcyclopropane-1-carboxamide]  1770 nM
4. CCn1c(-c2cc(-c3ccc(CN4CCC(F)C4)cc3)cnc2C(C)OC)c2c3cc(ccc31)-c1csc(n1)CC(NC(=O)C1CC1C)C(=O)N1CCCC(N1)C(=O)OCC(C)(C)C2 [Compound 6′, (1S,2S)-N-((6^3S,4S,Z)-1^1-ethyl-1^2-(5-(4-(((R)-3-fluoropyrrolidin-1-yl)methyl)phenyl)-2-((S)-1-methoxyethyl)pyridin-3-yl)-10,10-dimethyl-5,7-dioxo-6^1,6^2,6^3,6^4,6^5,6^6-hexahydro-1^1H-8-oxa-2(4,2)-thiazola-1(5,3)-indola-6(1,3)-pyridazinacycloundecaphane-4-yl)-2-methylcyclopropane-1-carboxamide]  1460 nM
5. CCn1c(-c2cc(-c3ccc4c(c3)CCN(C)C4)cnc2C(C)OC)c2c3cc(ccc31)-c1csc(n1)CC(NC(=O)C1C(C)C1C)C(=O)N1CCCC(N1)C(=O)OCC(C)(C)C2 [Compound 3′, (1r,2R,3S)-N-((6^3S,4S,Z)-1^1-ethyl-1^2-(2-((S)-1-methoxyethyl)-5-(2-methyl-1,2,3,4-tetrahydroisoquinolin-6-yl)pyridin-3-yl)-10,10-dimethyl-5,7-dioxo-6^1,6^2,6^3,6^4,6^5,6^6-hexahydro-1^1H-8-oxa-2(4,2)-thiazola-1(5,3)-indola-6(1,3)-pyridazinacycloundecaphane-4-yl)-2,3-dimethylcyclopropane-1-carboxamide]  1230 nM
6. (1S,2S)-N-((6^3S,4S,Z)-1^1-ethyl-1^2-(2-((S)-1-methoxyethyl)-5-(1-(2-morpholinoethyl)-1H-pyrazol-4-yl)pyridin-3-yl)-10,10-dimethyl-5,7-dioxo-6^1,6^2,6^3,6^4,6^5,6^6-hexahydro-1^1H-8-oxa-2(4,2)-thiazola-1(5,3)-indola-6(1,3)-pyridazinacycloundecaphane-4-yl)-2-methylcyclopropane-1-carboxamide [Compound 15′]  1020 nM
7. CCn1c(-c2cc(-c3cccc(CN4CCOCC4)c3)cnc2C(C)OC)c2c3cc(ccc31)-c1csc(n1)CC(NC(=O)C1CC1C)C(=O)N1CCCC(N1)C(=O)OCC(C)(C)C2 [Compound 9′, (1S,2S)-N-((6^3S,4S,Z)-1^1-ethyl-1^2-(2-((S)-1-methoxyethyl)-5-(3-(morpholinomethyl)phenyl)pyridin-3-yl)-10,10-dimethyl-5,7-dioxo-6^1,6^2,6^3,6^4,6^5,6^6-hexahydro-1^1H-8-oxa-2(4,2)-thiazola-1(5,3)-indola-6(1,3)-pyridazinacycloundecaphane-4-yl)-2-methylcyclopropane-1-carboxamide]  836 nM
8. CCn1c(-c2cc(-c3cc(C4(C)CN(C)C4)on3)cnc2C(C)OC)c2c3cc(ccc31)-c1csc(n1)CC(NC(=O)C1C(C)C1C)C(=O)N1CCCC(N1)C(=O)OCC(C)(C)C2 [Compound 34′, (1r,2R,3S)-N-((6^3S,4S,Z)-1^2-(5-(5-(1,3-dimethylazetidin-3-yl)isoxazol-3-yl)-2-((S)-1-methoxyethyl)pyridin-3-yl)-1^1-ethyl-10,10-dimethyl-5,7-dioxo-6^1,6^2,6^3,6^4,6^5,6^6-hexahydro-1^1H-8-oxa-2(4,2)-thiazola-1(5,3)-indola-6(1,3)-pyridazinacycloundecaphane-4-yl)-2,3-dimethylcyclopropane-1-carboxamide]  116 nM
9. CCn1c(-c2cc(-c3ccc(CN4CCOCC4)nc3)cnc2C(C)OC)c2c3cc(ccc31)-c1csc(n1)CC(NC(=O)C1CC1C)C(=O)N1CCCC(N1)C(=O)OCC(C)(C)C2 [Compound 5′, (1S,2S)-N-((6^3S,4S,Z)-1^1-ethyl-1^2-(6-((S)-1-methoxyethyl)-6′-(morpholinomethyl)-[3,3′-bipyridin]-5-yl)-10,10-dimethyl-5,7-dioxo-6^1,6^2,6^3,6^4,6^5,6^6-hexahydro-1^1H-8-oxa-2(4,2)-thiazola-1(5,3)-indola-6(1,3)-pyridazinacycloundecaphane-4-yl)-2-methylcyclopropane-1-carboxamide]  99 nM
10. CCn1c(-c2cc(-c3nnc(C)n3C)cnc2C(C)OC)c2c3cc(ccc31)-c1csc(n1)CC(NC(=O)C1CC1C)C(=O)N1CCCC(N1)C(=O)OCC(C)(C)C2 [Compound 20′, (1S,2S)-N-((6^3S,4S,Z)-1^2-(5-(4,5-dimethyl-4H-1,2,4-triazol-3-yl)-2-((S)-1-methoxyethyl)pyridin-3-yl)-1^1-ethyl-10,10-dimethyl-5,7-dioxo-6^1,6^2,6^3,6^4,6^5,6^6-hexahydro-1^1H-8-oxa-2(4,2)-thiazola-1(5,3)-indola-6(1,3)-pyridazinacycloundecaphane-4-yl)-2-methylcyclopropane-1-carboxamide]  87 nM
11. (1S,2S)-N-((6^3S,4S,Z)-1^1-ethyl-1^2-(2-((S)-1-methoxyethyl)-5-(5-(1-methylpiperidin-4-yl)isoxazol-3-yl)pyridin-3-yl)-10,10-dimethyl-5,7-dioxo-6^1,6^2,6^3,6^4,6^5,6^6-hexahydro-1^1H-8-oxa-2(4,2)-thiazola-1(5,3)-indola-6(1,3)-pyridazinacycloundecaphane-4-yl)-2-methylcyclopropane-1-carboxamide [Compound 30′]  60 nM
12. (1S,2S)-N-((6^3S,4S,Z)-1^1-ethyl-1^2-(2-((S)-1-methoxyethyl)-5-(5-(1-methylazetidin-3-yl)isoxazol-3-yl)pyridin-3-yl)-10,10-dimethyl-5,7-dioxo-6^1,6^2,6^3,6^4,6^5,6^6-hexahydro-1^1H-8-oxa-2(4,2)-thiazola-1(5,3)-indola-6(1,3)-pyridazinacycloundecaphane-4-yl)-2-methylcyclopropane-1-carboxamide [Compound 31′]  53 nM
13. CCn1c(-c2cc(-c3cc(C4COCCN4C)on3)cnc2C(C)OC)c2c3cc(ccc31)-c1csc(n1)CC(NC(=O)C1C(C)C1C)C(=O)N1CCCC(N1)C(=O)OCC(C)(C)C2 [Compound 32′, (1r,2R,3S)-N-((6^3S,4S,Z)-1^1-ethyl-1^2-(2-((S)-1-methoxyethyl)-5-(5-((S)-4-methylmorpholin-3-yl)isoxazol-3-yl)pyridin-3-yl)-10,10-dimethyl-5,7-dioxo-6^1,6^2,6^3,6^4,6^5,6^6-hexahydro-1^1H-8-oxa-2(4,2)-thiazola-1(5,3)-indola-6(1,3)-pyridazinacycloundecaphane-4-yl)-2,3-dimethylcyclopropane-1-carboxamide]  33 nM
14. CCn1c(-c2cc(-c3cc(C4COCCN4C)on3)cnc2C(C)OC)c2c3cc(ccc31)-c1csc(n1)CC(NC(=O)C1C(C)C1C)C(=O)N1CCCC(N1)C(=O)OCC(C)(C)C2 [Compound 33′, (1r,2R,3S)-N-((6^3S,4S,Z)-1^1-ethyl-1^2-(2-((S)-1-methoxyethyl)-5-(5-((R)-4-methylmorpholin-3-yl)isoxazol-3-yl)pyridin-3-yl)-10,10-dimethyl-5,7-dioxo-6^1,6^2,6^3,6^4,6^5,6^6-hexahydro-1^1H-8-oxa-2(4,2)-thiazola-1(5,3)-indola-6(1,3)-pyridazinacycloundecaphane-4-yl)-2,3-dimethylcyclopropane-1-carboxamide]  32 nM
